Data set [1] in a line: Antioxidant activity assessed as peroxide reduction rate at 80 uM using H2O2/4-aminoantipyrine as substrate/hydrogen-donar. The format is physicochemical.
Data set [2] can be described thus: Antioxidant activity assessed as electrochemical reduction using Au electrode by cyclic voltammetric analysis. The format is physicochemical.
A short description of data set [3]: Antioxidant activity assessed as peroxide reduction rate at 80 uM using H2O2/pyrogallol as substrate/hydrogen-donar by ABTS-based assay. It counts as physicochemical.
A short description of data set [4]: Antioxidant activity assessed as peroxide reduction rate at 80 uM using H2O2/guaiacol as substrate/hydrogen-donar by ABTS-based assay. The format is physicochemical.
Data set [5] in a line: Antioxidant activity assessed as oxidation potential using Au electrode by cyclic voltammetric analysis. The format is physicochemical.
Data set [6] can be described thus: Antioxidant activity assessed as oxidation potential using glass carbon electrode by cyclic voltammetric analysis. The format is physicochemical.
Data set [7] in a line: Antioxidant activity assessed as peroxide reduction rate at 80 uM using H2O2/GSH as substrate/hydrogen-donar by GPx-based assay. The format is physicochemical.
A short description of data set [8]: Antioxidant activity assessed as electrochemical reduction using glass carbon electrode by cyclic voltammetric analysis. It counts as physicochemical.
Data set [9] in a line: Antioxidant activity assessed as peroxide reduction rate at 80 uM using H2O2/pyrocatechol as substrate/hydrogen-donar. It counts as physicochemical.
In another data set the test system is HepG2. The data set can be described thus: Cytotoxicity against human HepG2 cells after 48 hrs by MTT assay. The format is functional.
Data set [10] is described as follows: (§1) Cytotoxicity against HEK293 cells after 48 hrs by MTT assay. To be noted: human, HEK293 cells. It counts as cell-based.
A further data set has as its system SiHa. The data set can be described thus: Cytotoxicity against human SiHa cells after 48 hrs by MTT assay. The format is functional.
The next data set deals with MCF7. The data set can be described thus: Cytotoxicity against human MCF7 cells after 48 hrs by MTT assay. It counts as functional.
Data set [11] has as its system HEK293. The description is as §1. The format is cell-based. To be noted: human, hek293, 48 h.
For data set [12], the system named is HEK293. Nature of the data set: Selectivity index, ratio CC50 for HEK293 cells to CC50 for human HepG2 cells. It counts as functional.
In data set [13] the test system is HEK293. The data set can be described thus: Selectivity index, ratio CC50 for HEK293 cells to CC50 for human MCF7 cells. It counts as functional.
Data set [14] concerns HEK293. The data set can be described thus: Selectivity index, ratio CC50 for HEK293 cells to CC50 for human SiHa cells. The format is functional.

The source made the active and inactive calls. The calls are words filed in the database; no cut-off is given here. A value given as a limit tells only on which side of the number the result lay.

In the case of `O=C1/C(=C/c2ccccn2)NC(=[Se])N1C1CCCCC1`, the Activity in [1] is 3 µM/min; in data set [2], -1.81 V; in [3] it was 0 µM/min; in [4], 0 µM/min; in data set [5] it was 1.23 V; in data set [6], 1.16 V. Also, the Activity in data set [7] is 138 µM/min; in [8], -2.2 V; in data set [9] it was 0 µM/min.

`C=CCN1C(=O)CNC1=[Se]`: the half-maximal cytotoxic concentration (CC50) in the data set on HepG2 (HepG2, 48 h) came to 16.4 µM; in the data set on SiHa, 12.7 µM; in the data set with MCF7 (MCF7, 48 h) it was 44.1 µM. The compound also displayed a CC50 at 48 h in [10] of 10.3 µM.

Regarding `O=c1c2ccccc2[se]n1-c1ccccc1` [EBSELEN], the Activity in data set [7] is 140 µM/min.

As for `C=CCN1C(=O)CNC1=S`, the CC50 in the data set with HepG2 (HepG2, 48 h) is 40.7 µM; in the data set on SiHa, 42.4 µM; in the data set on MCF7 (MCF7, 48 h), 35.2 µM. In addition, the CC50 at 48 h in data set [10] was determined as 58.2 µM.

In the case of `C=CCN1C(=O)/C(=C/c2ccccn2)NC1=S`, the Activity in data set [1], in data set [3], in [4], in data set [7] and in data set [9] was 0 µM/min throughout. Also, the CC50 entry with HepG2, with SiHa and in the data set on MCF7 was “inactive” throughout. For the same compound, the CC50 result with HEK293 [11] was “Not Active”.

`C=CCN1C(=O)/C(=C/c2ccccn2)N=C1[Se]C`: the Activity in data set [1], in [3], in data set [4], in data set [7] and in data set [9] was 0 µM/min in each case. Further, the CC50 in the data set with HepG2 (HepG2, 48 h) was determined as 6.62 µM; in the data set on SiHa, 3.66 µM; in the data set on MCF7 (MCF7, 48 h), 7.18 µM. In [10], the CC50 at 48 h was found to be 12.6 µM. In addition, the “Selectivity Index” value with HEK293 [12], in the data set with HEK293 [13] and in the data set on HEK293 [14] was greater than 2 throughout.

Take `O=C1/C(=C/c2ccccn2)N=C([Se]CC[Se]C2=N/C(=C\c3ccccn3)C(=O)N2C2CCCCC2)N1C1CCCCC1`: the Activity is listed as -1.86 V in [2], 1.28 V in [5], 1.46 V in [6] and -2.61 V in data set [8].

Turning to `C=CCN1C(=O)/C(=C/c2ccccn2)NC1=[Se]`, the Activity in [1] was 0 µM/min; in data set [2] it was -1.79 V; in data set [3] it was 0 µM/min; in data set [4], 0 µM/min; in data set [5], 1.21 V; in data set [6] it was 1.2 V. For the same compound, the Activity in [7] was 79 µM/min; in [8] it was -2.15 V; in data set [9], 0 µM/min. The CC50 with HepG2 (HepG2, 48 h) turned out to be 29.8 µM; in the data set with SiHa it was 23.6 µM; with MCF7 (MCF7, 48 h) it was 31.2 µM. Besides, in data set [10], the CC50 at 48 h turned out to be 42.6 µM. For the same compound, the “Selectivity Index” value with HEK293 [12], with HEK293 [13] and in the data set on HEK293 [14] was greater than 2 each time.

With `C=CCN1C(=O)/C(=C/c2ccccn2)N=C1SC`, the CC50 in the data set on HepG2 (HepG2, 48 h) was 56.7 µM; with HEK293 [11], “Not Active”; with SiHa, 102 µM. Moreover, the CC50 entry in the data set on MCF7 is “inactive”.

As to `CCOC(=O)CNC(=[Se])NC1CCCCC1`, the Activity in data set [1] turned out to be 0 µM/min; in data set [3], 0 µM/min; in data set [4] it was 0 µM/min; in [7], 82 µM/min; in data set [9] it was 1.3 µM/min.
